A short description of this data set: recombinant barcode read abundance after kanamycin selection (control-corrected) (log10(CPM+1)); higher = more efficient recombination; sequences stand for … in AGTGCAGAGAAAATCGGCCAGTTTTCTCTGCCTGCAGTCCGCATGCCGT…AGATTTATGCAGCGGACTGCCTTTCTCCCAAAGTGATAAACCGGACAGTATCATGGACCGGTTTTCCCGGTAATCCGTATTTGCAAGGTTGGTTTCACT; site = the 11-nt target. Put shortly:
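Pooled E. coli screen pairing targets with IS621 bridge RNA target-binding loops. Each oligo (promoter, target, barcode, J23119-driven first 104 bridge RNA bases) was Gibson-cloned into a vector with the remaining 73 bp and T7-inducible recombinase, then co-electroporated with a donor plasmid. Two replicates each were plated on chloramphenicol/ampicillin LB agar (control) or chloramphenicol/ampicillin/kanamycin with 0.1 mM IPTG. Recombination efficiency is recombinant-junction barcode counts as CPM, averaged, control-corrected, reported as log10(CPM+1).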
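Further: IS621 recombinase and bridge RNA in Escherichia coli cells.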

For “CCGCCCGCTTGGGTTCTAACCTGTTGCCT (site CCGCCCGCTAG)”, the “recombinant barcode read abundance (log10)” value was determined as 0.473.

In the case of “CCGCCCGCTTGGGTTCTAACCTGTTGCCT (site CCGCCGGCTAG)”, the “recombinant barcode read abundance (log10)” value amounted to 0.083.

For the sequence “CCGCCCGCTTGGGTTCTAACCTGTTGCCT (site CCGCCTGCTAG)”, the “recombinant barcode read abundance (log10)” value amounted to 0.0828.

For “CCGCCCTCTTGGGTTCTAACCTGTTGCCT (site CAGCCCTCTAG)”, the “recombinant barcode read abundance (log10)” value worked out at 0.0642.

With “CCGCCCTCTTGGGTTCTAACCTGTTGCCT (site CCGCCCTCTAG)”, the “recombinant barcode read abundance (log10)” value stood at 1.04.

For the sequence “CCGCCCTCTTGGGTTCTAACCTGTTGCCT (site CGGCCCTCTAG)”, the “recombinant barcode read abundance (log10)” value was 0.105.

On to “CCGCCCTCTTGGGTTCTAACCTGTTGCCT (site CTGCCCTCTAG)”, for which the “recombinant barcode read abundance (log10)” value stood at 0.0291.

In the case of “CCGCCTCCTTGGGTTCTAACCTGTTGCGA (site CCGCCTCCTTC)”, the “recombinant barcode read abundance (log10)” value was 0.616.

Take “CCGCCTCCTTGGGTTCTAACCTGTTGCGA (site CCGCGTCCTTA)”: the “recombinant barcode read abundance (log10)” value came to 0.0484.

For “CCGCGCCCTTGGGTTCTAACCTGTTGCAT (site ACGCGCCCTGT)”, the “recombinant barcode read abundance (log10)” value came out at 0.0166.

With “CCGCGCCCTTGGGTTCTAACCTGTTGCAT (site CCGCGCCCTAT)”, the “recombinant barcode read abundance (log10)” value turned out to be 0.504.

On to “CCGCGCTCTTGGGTTCTAACCTGTTGCCT (site CCGCGCACTAG)”, for which the “recombinant barcode read abundance (log10)” value was 0.106.

Take “CCGCGCTCTTGGGTTCTAACCTGTTGCCT (site CCGCGCTCTAG)”: the “recombinant barcode read abundance (log10)” value is 0.641.

As to “CCGCGCTCTTGGGTTCTAACCTGTTGCTG (site ACGAGCTCTCA)”, the “recombinant barcode read abundance (log10)” value was determined as 0.

“CCGCGCTCTTGGGTTCTAACCTGTTGCTG (site CCGCGCTCTCA)”: the “recombinant barcode read abundance (log10)” value was found to be 0.379.

As for “CCGCGGCCTTGGGTTCTAACCTGTTGCCT (site ACGCGGCCTAG)”, the “recombinant barcode read abundance (log10)” value came out at 0.0555.

With “CCGCGGCCTTGGGTTCTAACCTGTTGCCT (site CCGCGGCCTAG)”, the “recombinant barcode read abundance (log10)” value was determined as 0.459.

In the case of “CCGCGGCCTTGGGTTCTAACCTGTTGCCT (site GCGCGGCCTAG)”, the “recombinant barcode read abundance (log10)” value was 0.0271.

On to “CCGCGGCCTTGGGTTCTAACCTGTTGCCT (site TCGCGGCCTAG)”, for which the “recombinant barcode read abundance (log10)” value came out at 0.0221.

In the case of “CCGCTACCTTGGGTTCTAACCTGTTGCCT (site CAGCTACCTAG)”, the “recombinant barcode read abundance (log10)” value was 0.109.

Take “CCGCTACCTTGGGTTCTAACCTGTTGCCT (site CCGCTACCTAG)”: the “recombinant barcode read abundance (log10)” value is 0.956.

For the sequence “CCGCTACCTTGGGTTCTAACCTGTTGCCT (site CGGCTACCTAG)”, the “recombinant barcode read abundance (log10)” value came to 0.103.

For the sequence “CCGCTACCTTGGGTTCTAACCTGTTGCCT (site CTGCTACCTAG)”, the “recombinant barcode read abundance (log10)” value came out at 0.19.

As to “CCGCTGTCTTGGGTTCTAACCTGTTGCCT (site CCGCTGTCTAG)”, the “recombinant barcode read abundance (log10)” value was 0.394.

Regarding “CCGCTGTCTTGGGTTCTAACCTGTTGCCT (site CCTCTGGCTAG)”, the “recombinant barcode read abundance (log10)” value turned out to be 0.167.

For the sequence “CCGGACCCTTGGGTTCTAACCTGTTGCTG (site CCGGACCCTCA)”, the “recombinant barcode read abundance (log10)” value worked out at 2.49.

In the case of “CCGGACCCTTGGGTTCTAACCTGTTGCTG (site CCGTGCCCTCA)”, the “recombinant barcode read abundance (log10)” value came to 0.336.

Turning to “CCGGATGCTTGGGTTCTAACCTGTTGCCT (site CCGAATGCTAG)”, the “recombinant barcode read abundance (log10)” value stood at 0.272.

“CCGGATGCTTGGGTTCTAACCTGTTGCCT (site CCGCATGCTAG)”: the “recombinant barcode read abundance (log10)” value came to 0.117.

Regarding “CCGGATGCTTGGGTTCTAACCTGTTGCCT (site CCGGATGCTAG)”, the “recombinant barcode read abundance (log10)” value is 0.775.

Turning to “CCGGATGCTTGGGTTCTAACCTGTTGCCT (site CCGTATGCTAG)”, the “recombinant barcode read abundance (log10)” value came to 0.0746.

As for “CCGGATTCTTGGGTTCTAACCTGTTGCCT (site CCGGATTCTAG)”, the “recombinant barcode read abundance (log10)” value was 1.69.

For the origin of these results see the supplement of paper PMC11208160.
